Data from US11130769B2 (Prelude Therapeutics Incorporated, priority 2018, dated 2021).

Key:
H929 cells = assay: Cell viability assay (H929 10 FBS); format: cell-based; settings: Homo sapiens, NCI-H929, 24 hours, read-out: H929_10FBS IC50
Procedure, shortened: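 ATP-based luminescence (CellTiter-Glo or ATPlite 1 Step, 30-60 min at RT) gauged viability of H929 myeloma cells after 24 h compound treatment at 37 °C. Cells plated at 4000 per well in 10% FBS RPMI 1640 supplemented with pyruvate, HEPES and glucose.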

MCL-1 = MCL-1 (Homo sapiens (Human), UniProt Q07820); assay: Cell free Mcl-1:Bim affinity assay (fluorescence polarization competition); format: binding; settings: 15 nM MCL-1, 5 nM FITC-Bim, 1 hour at room temperature; class symbols; read-out: BIM_Ki
Sequence of MCL-1 (Q07820 whole entry): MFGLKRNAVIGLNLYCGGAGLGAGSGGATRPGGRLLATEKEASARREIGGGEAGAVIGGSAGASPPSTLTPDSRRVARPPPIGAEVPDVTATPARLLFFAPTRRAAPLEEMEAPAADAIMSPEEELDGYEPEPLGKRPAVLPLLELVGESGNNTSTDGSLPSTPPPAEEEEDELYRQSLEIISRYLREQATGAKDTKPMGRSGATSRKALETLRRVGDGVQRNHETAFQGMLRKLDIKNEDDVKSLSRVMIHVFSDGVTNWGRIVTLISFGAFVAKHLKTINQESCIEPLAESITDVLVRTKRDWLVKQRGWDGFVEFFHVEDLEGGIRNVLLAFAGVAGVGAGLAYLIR
Procedure, shortened: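 Fluorescence polarization competition: 10-point 3-fold compound dilutions displaced 5 nM FITC-Bim from 15 nM MCL-1 over 1 h at room temperature. Ki was derived from the fitted IC50 using the Nikolovska-Coleska equation, with percent inhibition normalized to DMSO and positive controls.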

Structure (SMILES) | IC50 (H929 cells) [nM] | Ki (MCL-1) [nM]
COC[C@@H]1CCCN1C(=O)O[C@H]1/C=C/COC(C)(C)C(=O)NS(=O)(=O)c2ccc3c(c2)N(C[C@@H]2CC[C@H]21)C[C@@]1(CCCc2cc(Cl)ccc21)CO3 [Example 160, [(3R,6R,7S,8E,22S)-6′-Chloro-12,12-dimethyl-13,15,15-trioxo-spiro[11,20-dioxa-15-thia-1,14-diazatetracyclo[14.7.2.03,6.019,24]pentacosa-8,16,18,24-tetraene-22,1′-tetralin]-7-yl] (2S)-2-(methoxymethyl)pyrrolidine-1-carboxylate] | < 500 | < 1
COC[C@H]1CCCN1C(=O)O[C@H]1/C=C/COC(C)(C)C(=O)NS(=O)(=O)c2ccc3c(c2)N(C[C@@H]2CC[C@H]21)C[C@@]1(CCCc2cc(Cl)ccc21)CO3 [Example 161, [(3R,6R,7S,8E,22S)-6′-Chloro-12,12-dimethyl-13,15,15-trioxo-spiro[11,20-dioxa-15-thia-1,14-diazatetracyclo[14.7.2.03,6.019,24]pentacosa-8,16,18,24-tetraene-22,1′-tetralin]-7-yl] (2R)-2-(methoxymethyl)pyrrolidine-1-carboxylate] | < 1000 | < 1
CCO[C@H]1CCN(C(=O)O[C@H]2/C=C/COC(C)(C)C(=O)NS(=O)(=O)c3ccc4c(c3)N(C[C@@H]3CC[C@H]32)C[C@@]2(CCCc3cc(Cl)ccc32)CO4)C1 [Example 162, [(3R,6R,7S,8E,22S)-6′-Chloro-12,12-dimethyl-13,15,15-trioxo-spiro[11,20-dioxa-15-thia-1,14-diazatetracyclo[14.7.2.03,6.019,24]pentacosa-8,16,18,24-tetraene-22,1′-tetralin]-7-yl] (3S)-3-ethoxypyrrolidine-1-carboxylate] | < 500 | < 1
CN[C@H]1CCN(C(=O)O[C@H]2/C=C/COC(C)(C)C(=O)NS(=O)(=O)c3ccc4c(c3)N(C[C@@H]3CC[C@H]32)C[C@@]2(CCCc3cc(Cl)ccc32)CO4)C1 [Example 163, [(3R,6R,7S,8E,22S)-6′-Chloro-12,12-dimethyl-13,15,15-trioxo-spiro[11,20-dioxa-15-thia-1,14-diazatetracyclo[14.7.2.03,6.019,24]pentacosa-8,16,18,24-tetraene-22,1′-tetralin]-7-yl] (3S)-3-(methylamino)pyrrolidine-1-carboxylate] | < 500 | < 1
CN[C@@H]1CCN(C(=O)O[C@H]2/C=C/COC(C)(C)C(=O)NS(=O)(=O)c3ccc4c(c3)N(C[C@@H]3CC[C@H]32)C[C@@]2(CCCc3cc(Cl)ccc32)CO4)C1 [Example 164, [(3R,6R,7S,8E,22S)-6′-Chloro-12,12-dimethyl-13,15,15-trioxo-spiro[11,20-dioxa-15-thia-1,14-diazatetracyclo[14.7.2.03,6.019,24]pentacosa-8,16,18,24-tetraene-22,1′-tetralin]-7-yl] (3R)-3-(methylamino)pyrrolidine-1-carboxylate] | < 500 | < 1
CC1(C)OC/C=C/[C@H](OC(=O)N2CCC(F)(F)C2)[C@@H]2CC[C@H]2CN2C[C@@]3(CCCc4cc(Cl)ccc43)COc3ccc(cc32)S(=O)(=O)NC1=O [Example 166, [(3R,6R,7S,8E,22S)-6′-Chloro-12,12-dimethyl-13,15,15-trioxo-spiro[11,20-dioxa-15-thia-1,14-diazatetracyclo[14.7.2.03,6.019,24]pentacosa-8,16,18,24-tetraene-22,1′-tetralin]-7-yl] 3,3-difluoropyrrolidine-1-carboxylate] | < 500 | < 1
CONC(=O)O[C@H]1/C=C/COC(C)(C)C(=O)NS(=O)(=O)c2ccc3c(c2)N(C[C@@H]2CC[C@H]21)C[C@@]1(CCCc2cc(Cl)ccc21)CO3 [Example 167, [(3R,6R,7S,8E,22S)-6′-Chloro-12,12-dimethyl-13,15,15-trioxo-spiro[11,20-dioxa-15-thia-1,14-diazatetracyclo[14.7.2.03,6.019,24]pentacosa-8,16,18,24-tetraene-22,1′-tetralin]-7-yl] N-methoxycarbamate] | < 500 | < 1
CN(C)C[C@@H]1CCCN1C(=O)O[C@H]1/C=C/COC(C)(C)C(=O)NS(=O)(=O)c2ccc3c(c2)N(C[C@@H]2CC[C@H]21)C[C@@]1(CCCc2cc(Cl)ccc21)CO3 [Example 168, [(3R,6R,7S,8E,22S)-6′-Chloro-12,12-dimethyl-13,15,15-trioxo-spiro[11,20-dioxa-15-thia-1,14-diazatetracyclo[14.7.2.03,6.019,24]pentacosa-8,16,18,24-tetraene-22,1′-tetralin]-7-yl] (2S)-2-[(dimethylamino)methyl]pyrrolidine-1-carboxylate] | < 500 | < 1
CC1(C)OC/C=C/[C@H](OC(=O)N2CC3CCC(C2)O3)[C@@H]2CC[C@H]2CN2C[C@@]3(CCCc4cc(Cl)ccc43)COc3ccc(cc32)S(=O)(=O)NC1=O [Example 170, [(3R,6R,7S,8E,22S)-6′-Chloro-12,12-dimethyl-13,15,15-trioxo-spiro[11,20-dioxa-15-thia-1,14-diazatetracyclo[14.7.2.03,6.019,24]pentacosa-8,16,18,24-tetraene-22,1′-tetralin]-7-yl] 8-oxa-3-azabicyclo[3.2.1]octane-3-carboxylate] | < 1000 | < 1
CC1(C)OC/C=C/[C@H](OC(=O)N2CCN3CCOC[C@H]3C2)[C@@H]2CC[C@H]2CN2C[C@@]3(CCCc4cc(Cl)ccc43)COc3ccc(cc32)S(=O)(=O)NC1=O [Example 171, [(3R,6R,7S,8E,22S)-6′-Chloro-12,12-dimethyl-13,15,15-trioxo-spiro[11,20-dioxa-15,6-thia-1,14-diazatetracyclo[14.7.2.03,6.019,24]pentacosa-8,16,18,24-tetraene-22,1′-tetralin]-7-yl](9aS)-3,4,6,7,9,9a-hexahydro-1H-pyrazino[2,1-c][1,4]oxazine-8-carboxylate] | < 500 | < 1
C[C@@H]1CN(C(=O)O[C@H]2/C=C/COC(C)(C)C(=O)NS(=O)(=O)c3ccc4c(c3)N(C[C@@H]3CC[C@H]32)C[C@@]2(CCCc3cc(Cl)ccc32)CO4)CCN1 [Example 175, [(3R,6R,7S,8E,22S)-6′-Chloro-12,12-dimethyl-13,15,15-trioxo-spiro[11,20-dioxa-15-thia-1,14-diazatetracyclo[14.7.2.03,6.019,24]pentacosa-8,16,18,24-tetraene-22,1′-tetralin]-7-yl] (3R)-3-methylpiperazine-1-carboxylate] | < 500 | < 1
CC1(C)OC/C=C/[C@H](OC(=O)N2CCN(c3ccccn3)CC2)[C@@H]2CC[C@H]2CN2C[C@@]3(CCCc4cc(Cl)ccc43)COc3ccc(cc32)S(=O)(=O)NC1=O [Example 177, [(3R,6R,7S,8E,22S)-6′-Chloro-12,12-dimethyl-13,15,15-trioxo-spiro[11,20-dioxa-15-thia-1,14-diazatetracyclo[14.7.2.03,6.019,24]pentacosa-8,16,18,24-tetraene-22,1′-tetralin]-7-yl] 4-(2-pyridyl)piperazine-1-carboxylate] | < 500 | 1 to 100

Results, then the compound that gave them:

IC50 (H929 cells) [nM] | Ki (MCL-1) [nM] | Structure (SMILES)
< 500 | < 1 | CC1(C)OC/C=C/[C@H](OC(=O)N2CC(F)C2)[C@@H]2CC[C@H]2CN2C[C@@]3(CCCc4cc(Cl)ccc43)COc3ccc(cc32)S(=O)(=O)NC1=O [Example 165, [(3R,6R,7S,8E,22S)-6′-Chloro-12,12-dimethyl-13,15,15-trioxo-spiro[11,20-dioxa-15-thia-1,14-diazatetracyclo[14.7.2.03,6.019,24]pentacosa-8,16,18,24-tetraene-22,1′-tetralin]-7-yl] 3-fluoroazetidine-1-carboxylate]
< 500 | < 1 | CC1(C)OC/C=C/[C@H](OC(=O)N2CCOCC2)[C@@H]2CC[C@H]2CN2C[C@@]3(CCCc4cc(Cl)ccc43)COc3ccc(cc32)S(=O)(=O)NC1=O [Example 172, [(3R,6R,7S,8E,22S)-6′-Chloro-12,12-dimethyl-13,15,15-trioxo-spiro[11,20-dioxa-15-thia-1,14-diazatetracyclo[14.7.2.03,6.019,24]pentacosa-8,16,18,24-tetraene-22,1′-tetralin]-7-yl]morpholine-4-carboxylate]
< 500 | < 1 | CC1(C)OC/C=C/[C@H](OC(=O)N2CCCC2)[C@@H]2CC[C@H]2CN2C[C@@]3(CCCc4cc(Cl)ccc43)COc3ccc(cc32)S(=O)(=O)NC1=O [Example 173, [(3R,6R,7S,8E,22S)-6′-Chloro-12,12-dimethyl-13,15,15-trioxo-spiro[11,20-dioxa-15-thia-1,14-diazatetracyclo[14.7.2.03,6.019,24]pentacosa-8,16,18,24-tetraene-22,1′-tetralin]-7-yl]pyrrolidine-1-carboxylate]
< 500 | < 1 | CC1(C)OC/C=C/[C@H](OC(=O)N2CCC2)[C@@H]2CC[C@H]2CN2C[C@@]3(CCCc4cc(Cl)ccc43)COc3ccc(cc32)S(=O)(=O)NC1=O [Example 174, [(3R,6R,7S,8E,22S)-6′-Chloro-12,12-dimethyl-13,15,15-trioxo-spiro[11,20-dioxa-15-thia-1,14-diazatetracyclo[14.7.2.03,6.019,24]pentacosa-8,16,18,24-tetraene-22,1′-tetralin]-7-yl] azetidine-1-carboxylate]
< 500 | < 1 | C[C@H]1CN(C(=O)O[C@H]2/C=C/COC(C)(C)C(=O)NS(=O)(=O)c3ccc4c(c3)N(C[C@@H]3CC[C@H]32)C[C@@]2(CCCc3cc(Cl)ccc32)CO4)CCN1 [Example 176, [(3R,6R,7S,8E,22S)-6′-Chloro-12,12-dimethyl-13,15,15-trioxo-spiro[11,20-dioxa-15-thia-1,14-diazatetracyclo[14.7.2.03,6.019,24]pentacosa-8,16,18,24-tetraene-22,1′-tetralin]-7-yl] (3S)-3-methylpiperazine-1-carboxylate]
